Laboratory results from US6841684B2, “Imidiazoles having reduced side effects” (Allergan, Inc., priority 1997, dated 2005).
Counter-ions that a name gives are not always drawn.

What was measured:
[1] = molecular target: T1, rat α2B (RNG gene) receptor (Rattus norvegicus, UniProt P19328); experiment: RSAT (Receptor Selection and Amplification Technology) assay, alpha 2B; type: cell-based; settings: ratio of maximal effect to that of standard full agonist oxymetazoline
T1 construct: expressed in transfected cells; host or cells: NIH-3T3 cells, calcium phosphate cotransfection
T1 sequence (P19328 1-453): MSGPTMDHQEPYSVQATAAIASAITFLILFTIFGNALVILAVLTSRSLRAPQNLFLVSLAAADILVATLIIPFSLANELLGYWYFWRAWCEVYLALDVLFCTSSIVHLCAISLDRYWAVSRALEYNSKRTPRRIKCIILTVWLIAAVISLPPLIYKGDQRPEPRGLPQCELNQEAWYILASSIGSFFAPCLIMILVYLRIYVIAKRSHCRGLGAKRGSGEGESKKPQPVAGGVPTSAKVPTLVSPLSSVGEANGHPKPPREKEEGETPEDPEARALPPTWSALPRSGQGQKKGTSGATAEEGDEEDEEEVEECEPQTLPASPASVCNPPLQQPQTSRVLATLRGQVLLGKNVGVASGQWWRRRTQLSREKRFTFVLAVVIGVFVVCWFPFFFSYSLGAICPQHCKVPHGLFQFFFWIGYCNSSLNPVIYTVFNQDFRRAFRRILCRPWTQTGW
Text: This preferential activity can be determined in a variety of functional assays such as Cyclic AMP Production, Shimizu et al, J. Neurochem. […] In the study below, the RSAT assay on cells that have been transiently transfected with the human α2A (c10 gene), rat α2B (RNG gene) and human α2C (c4 gene) receptors was used.
The assay measures a receptor-mediated loss of contact inhibition that results in selective proliferation of receptor-containing cells in a mixed population of confluent cells. The increase in cell number is assessed with an appropriate transfected marker gene such as b-galactosidase, the activity of which can be easily measured in a 96-well format. Receptors that activate the G protein, Gq, elicit this response. Alpha2 receptors, which normally couple to Gi, activate the RSAT response when coexpressed with a hybrid Gq protein that has a Gi receptor recognition domain, called Gq/i5^2.
NIH-3T3 cells are plated at a density of 2×10^6 cells in 15 cm dishes and maintained in Dulbecco's modified Eagle's medium supplemented with 10% calf serum. One day later, cells are cotransfected by calcium phosphate precipitation with mammalian expression plasmids encoding p-SV-b-galactosidase (5-10 mg), receptor (1-2 mg) and G protein (1-2 mg). 40 mg salmon sperm DNA may also be included in the transfection mixture. Fresh media is added on the following day and 1-2 days later, cells are harvested and frozen in 50 assay aliquots. Cells are thawed and 100 ml added to […] aliquots of various concentrations of drugs in triplicate in 96-well dishes. Incubations continue 72-96 hr at 37°. After washing with phosphate-buffered saline, b-galactosidase enzyme activity is determined by adding 200 ml of the chromogenic substrate (consisting of 3.5 mM o-nitrophenyl-b-D-galactopyranoside and 0.5% nonidet P-40 in phosphate buffered saline), incubating overnight at 30° and measuring optical density at 420 nm. The absorbence is a measure of enzyme activity, which depends on cell number and reflects a receptor-mediated cell proliferation. The EC50 and maximal effect of each drug at each alpha2 receptor is determined. The efficacy or intrinsic activity is calculated as a ratio of the maximal effect of the drug to the maximal effect of a standard full agonist for each receptor subtype.

[2] = test system: conscious cynomolgus monkeys; experiment: Cardiovascular side effects (blood pressure, heart rate) after i.v. administration; type: in vivo, cynomolgus monkey; settings: i.v. 500 μg/kg, up to 6 hours; + with * = increase from base levels
Text: Cardiovascular measurements were made in a different group of monkeys using a BP 100S automated sphygmomanometer (Nippon Colin,. Japan).

Row | SMILES | Intrinsic Activity Relative to Oxymetazoline, Alpha 2B [1] | Maximum % Decrease From Pretreatment Levels, Heart Rate [2] | Maximum % Decrease From Pretreatment Levels, Mean Arterial Blood Pressure [2]
1 | c1coc(Cc2c[nH]cn2)c1 [Example C-5, 4(5)-furan-2-ylmethyl-1H-imidazole] | 1.1 | 7.1 ± 3.9% | 3.9 ± 2.8%
2 | O=C1c2ccccc2OCC1Cc1c[nH]cn1 (stereo not shown) [Example B-2b, 3-(1H-imidazol-4(5)-ylmethyl)chroman-4-one] | 0.77 | 6.4 ± 3.6% | 5.7 ± 1.4%
3 | O=C1/C(=C/c2c[nH]cn2)CCc2ncccc21 [Example Q-2, (E)-6-(1H-imidazol-4(5)-ylmethylene)-7,8-dihydro-6H-quinolin-5-one] | 0.87 |  | 
4 | CCC1=CCCCC1Cc1c[nH]cn1 (stereo not shown) [Example 1N] | 0.7 |  | 
5 | c1nc(Cc2cc3c(s2)SCCC3)c[nH]1 [Example K-3, 4(5)-(5,6-dihydro-4H-thieno[2,3-b]thiopyran-2-ylmethyl)-1H-imidazole] | 0.37 |  | 
6 | CCCCCC1=CCC(Cc2c[nH]cn2)CC1 (stereo not shown) [Example X-3, 4(5)-(4-Pentyl-cyclohex-3-enylmethyl)-1H-imidazole, but-2-enedioic acid salt] | 0.87 |  | 
7 | O=C1c2cnccc2CCC1Cc1c[nH]cn1 (stereo not shown) [Example P-1, 7-(1H-imidazol-4(5)-ylmethyl)-6,7-dihydro-5H-isoquinoline-8-one, fumarate] | 0.4 |  | 
8 | O=C1CCCCC1Cc1c[nH]cn1 (stereo not shown) [V, 2-(1H-Imidazole-4(5)-ylmethyl)-cyclohexanone, but-2-enedioic acid salt] | 0.4 |  | 
9 | OC1c2ccccc2OCC1Cc1c[nH]cn1 (stereo not shown) [Example B-2c, 3-(1H-imidazol-4(5)-ylmethyl)chroman-4-ol] | 0.65 |  | 
10 | c1cc2c(cn1)CCC(Cc1c[nH]cn1)C2 (stereo not shown) [Example R-3, 6-(1H-imidazol-4(5)-ylmethyl)-5,6,7,8-tetrahydro-isoquinoline, fumarate] | 0.6 |  | 
11 | c1nc(CC2CCC3=C(CCCC3)C2)c[nH]1 (stereo not shown) [Example N-3, 4(5)-(1,2,3,4,5,6,7,8-octahydronaphthalen-2-ylmethyl)-1H-imidazole, fumarate] | 0.75 |  | 
12 | COc1ccc2c(c1)C(=O)C(Cc1c[nH]cn1)CC2 (stereo not shown) [Example B-1a, 2-(1H-imidazol-4(5)-ylmethyl)-7-methoxy-3,4-dihydro-2H-naphthalen-1-one] | 0.6 |  | 
13 | Cc1ccccc1C1C2CCC(C2)C1/N=C1/NCCO1 [Example D-2, oxazolidin-2-ylidene-(3-o-tolylbicyclo[2.2.1]hept-2-yl) amine] | 0.75 |  | 
14 | CC1(C)CC(Cc2c[nH]cn2)Cc2ccccc21 (stereo not shown) [Example B-10, 4(5)-(4,4-dimethyl-1,2,3,4-tetrahydronaphthalen-2-ylmethyl)-1H-imidazole] | 0.3 |  | 
15 | O=C1/C(=C/c2c[nH]cn2)CCCc2ccccc21 [Example B-11b, 6-(1H-imidazol-4(5)-ylmethylene)-6,7,8,9-tetrahydrobenzocyclohepten-5-one] | 0.3 |  | 
16 | C[C@@]12CCCCC1=C[C@@H](Cc1c[nH]cn1)CC2 [Example S, 4(5)-(4a-methyl-2,3,4,4a,5,6,7,8-octahydro-naphthalen-2-ylmethyl)-1H-imidazole, but-2-enedioic acid salt] | .6 |  | 
17 | CC1=CCCCC1Cc1cnc[nH]1 (stereo not shown) [Example 1I] | 0.8 |  | 
18 | CC1=CC(Cc2c[nH]cn2)CCC1 (stereo not shown) [Example T-1, 4(5)-(3-methyl-cyclohex-2-enylmethyl)-1H-imidazole, but-2-enedioic acid salt] | 0.8 |  | 

Row | SMILES | Intrinsic Activity Relative to Oxymetazoline, Alpha 2B [1] | Maximum % Decrease From Pretreatment Levels, Heart Rate [2] | Maximum % Decrease From Pretreatment Levels, Mean Arterial Blood Pressure [2]
19 | Cc1ccc2c(c1)C(=O)C(Cc1c[nH]cn1)CC2 (stereo not shown) [Example B-8a, 2-(1-H-imidazol-4(5)-ylmethyl)-7-methyl-3,4-dihydro-2H-naphthalen-1-one] | 0.4 |  | 
20 | C1=NC(CC2CCc3ccccc3C2)CN1 (stereo not shown) [I, 4(5)-(1,2,3,4-tetrahydronaphthalen-2-ylmethyl)-4,5-dihydro-1H-imidazole, methane sulfonic acid salt] | 0.5 |  | 
21 | c1ccc(Sc2c[nH]cn2)cc1 [H, 4(5)-phenylsulfanyl-1H-imidazole] | 0.93 |  | 
22 | c1ccc2c(c1)CCCC(Cc1c[nH]cn1)C2 (stereo not shown) [Example B-11a, 4(5)-(6,7,8,9-tetrahydro-5H-benzocyclohepten-6-ylmethyl)-1H-imidazole] | 0.9 |  | 
23 | C1=C(C2CC2)CCCC1Cc1c[nH]cn1 (stereo not shown) [Example 1L] | 0.7 |  | 
24 | C1CO/C(=N\C2CC3CCC2C3)N1 [Example D-3, bicyclo[2.2.1]hept-2-yl oxazolidin-2-ylidene amine] | 0.4 |  | 
25 | Cc1csc(Cc2c[nH]cn2)c1.Cl [Example C-14, 4(5)-(4-methylthiophen-2-ylmethyl)-1H-imidazole, hydrochloride salt] | 0.7 |  | 
26 | O=C1c2cccnc2CCC1Cc1c[nH]cn1 (stereo not shown) [Example Q-3, 6-(1H-imidazol-4(5)-ylmethyl)-7,8-dihydro-6H-quinolin-5-one] | 0.9 |  | 
27 | CCC1=CC(Cc2c[nH]cn2)CC1 (stereo not shown) [Example 1Q] | 0.75 |  | 
28 | Cc1c(N=C2NCCN2)ccc2c1NC(=O)CO2 [F, 6-(imidazolidin-2-ylideneamino)-5-methyl-4H-benzo[1,4]oxazin-3-one] | 0.9 |  | 
29 | CC1=CC(Cc2c[nH]cn2)CC(C)(C)C1 (stereo not shown) [Example T-2, 4(5)-(3,5,5-trimethyl-cyclohex-2-enylmethyl)-1H-imidazole, but-2-endioic acid salt] | 0.7 |  | 
30 | COc1ccc2c(c1)CC(Cc1c[nH]cn1)CC2.Cl (stereo not shown) [Example B-1, 4(5)-(7-methoxy-1,2,3,4-tetrahydronaphthalen-2-ylmethyl)-1H-imidazole, hydrogen chloride salt] | 0.45 |  | 
31 | C1=C2CCCCC2CCC1Cc1c[nH]cn1 (stereo not shown) [Example N-2, 4(5)-(2,3,4,4a,5,6,7,8-octahydronaphthalen-2-ylmethyl)-1H-imidazole] | 0.5 |  | 
32 | C1=CCC(Cc2c[nH]cn2)CC1 (stereo not shown) [Example W-2, 4(5)-Cyclohex-3-enylmethyl-1H-imidazole, but-2-enedioic acid salt] | 0.6 |  | 
33 | Cc1ccc(N=C2NCCN2)c2c1NCCO2.Cl [G, imidazolin-2-ylidene-(5-methyl-3,4-dihydro-2H-benzo[1,4]oxazin-8-yl) amine, hydrogen chloride salt] | 0.87 |  | 
34 | c1ccc2c(c1)OCCC2Cc1cnc[nH]1 (stereo not shown) [Example 1C] | 0.8 |  | 
35 | Cl.c1nc(CC2CCC3SCCC3C2)c[nH]1 (stereo not shown) [Example B-9c, 5-(octahydrobenzo[b]thiophen-5-ylmethyl)-1H-imidazole, hydrochloride] | 0.3 |  | 
36 | Cl.c1nc(CC2CC3CCCC3C2)c[nH]1 (stereo not shown) [Example O, 4(5)-octahydro pentalen-2-ylmethyl-1H-imidazole, hydrochloride] | 0.67 |  | 
